Measured values published in patent publication US8450319B2, “Pyrrolopyridazinone compound” (Ube Industries, Ltd., priority 2006, dated 2013).

Assays:
[1] = test system: pulmonary neutrophil infiltration; assay: Pulmonary neutrophil infiltration-inhibiting activity in SD rats (LPS inhalation, MPO activity in BALF); type: in vivo; details: @3 mg/Kg, orally 15 minutes before LPS inhalation; BAL 4 hours after LPS; MPO activity as index; inhibiting rate relative to control
Method: Inhalation of lipopolysaccharide (hereinafter abbreviated to as LPS) was carried out by modifying the method of Moraes et al. (Br. J. Pharmacol., 123, 631 (1998)). SD rats (male, 5-weeks old, supplied by CHARLES RIVER LABORATORIES JAPAN, INC.) fasted 24 hours before administration of a compound were kept in a plastic cage, and inhalated LPS (L2880-500MG, available from SIGMA Inc.) (0.1 mg/ml) dissolved in physiological saline for 30 minutes. An ultrasonic nebulizer (NE-U12, manufactured by Omron Corporation) was used for inhalation.
A compound to be tested is dissolved (10 ml/Kg) in mixed solution of polyethylene glycol (hereinafter abbreviated to as PEG) and water, and orally administered 15 minutes before the inhalation of LPS. For the control group, 50% PEG solution was administered.
Bronchoalveolar lavage (hereinafter abbreviated to as BAL) was carried out as mentioned below 4 hours after the inhalation of LPS. […] 3.5 ml of physiological saline containing heparin (1 U/ml) was injected by using a disposable injection syringe (5 ml volume, manufactured by Terumo Corporation), and immediately recovered. This operation was repeated four times to obtain a bronchioalveolar lavage fluid (hereinafter abbreviated to as BALF). BALF was centrifugated (at 2500 rpm, 10 minutes, 4° C.), and 1 ml of 0.5% hexadecyltrimethylammonium bromide (030-02105, available from Wako Pure Chemical Industries, Ltd.) was added to the precipitated cells. Thereafter, a freeze-thaw operation (−80° C./37° C.) was repeated three times to destroy the cells.
As an index of a number of neutrophil, measurement of myeloperoxidase (hereinafter abbreviated to as MPO) activity was carried out as follows. Measurement of MPO activity was carried out by partially modifying the method of Krawisz et al. (GASTROENTEROLOGY, 1344 (1984)). To cell dissolved solution was added 50 mM phosphate buffer solution (pH 6.0) containing o-dianisidine hydrochloride (0.2 mg/ml) and 0.005% hydrogen peroxide, and change in absorbance at 450 nm was measured. As a MPO standard substance, MPO from human sputum (available from Elastin Products Company Inc.) was used. Measurement of absorbance was carried out by using a Microplate Reader (MTP-32, manufactured by Corona Electric Co., Ltd.).
An inhibiting rate of the compound to be tested relative to the control was calculated.

cynomulgus monkey = assay: Emetic action test in cynomulgus monkey; details: suspended in 0.5% aqueous methyl cellulose, administered nasally; emesis observed for 24 hours; 3 or 4 monkeys per dose
Method: The compound to be tested was suspended in 0.5% aqueous methyl cellulose solution (5 ml/Kg), and administered nasally.
With respect to each dose, each administered to 3 or 4 monkeys, and a dose in which emesis had not been admitted in all monkeys was made a maximum non-emesis dose.

SMILES | Rat pulmonary neutrophil infiltration-inhibiting activity [1] | melting point | Monkey Maximum non-emesis dose (cynomulgus monkey)
O=c1[nH]ncc2[nH]c(-c3ccc(OC(F)F)c(OC4CC4)c3)c(COCCF)c12 [Example 61, 2-(3-Cyclopropoxy-4-difluoromethoxyphenyl)-3-(2-fluoroethoxymethyl)-1,5-dihydropyrrolo[2,3-d]pyridazin-4-one] | 59% | – | –
O=c1[nH]ncc2[nH]c(-c3ccc(OC(F)F)c(OC4CC4)c3)c(CC3CC3)c12 [Example 15, 2-(3-Cyclopropoxy-4-difluoromethoxyphenyl)-3-cyclopropylmethyl-1,5-dihydropyrrolo[2,3-d]pyridazin-4-one] | 73% | 204 to 206 °C | –
O=c1[nH]ncc2[nH]c(-c3ccc(OC(F)F)c(OC4CC4)c3)c(Cc3ccccc3F)c12 [Example 22, 2-(3-Cyclopropoxy-4-difluoromethoxyphenyl)-3-(2-fluorobenzyl)-1,5-dihydropyrrolo[2,3-d]pyridazin-4-one] | 78% | 202 to 204 °C | –
COCCc1c(-c2ccc(OC(F)F)c(OC3CC3)c2)[nH]c2cn[nH]c(=O)c12 [Example 66, 2-(3-Cyclopropoxy-4-difluoromethoxyphenyl)-3-(2-methoxyethyl)-1,5-dihydropyrrolo[2,3-d]pyridazin-4-one] | 69% | 215 to 217 °C | >10 mg/kg
CC#CCc1c(-c2ccc(OC(F)F)c(OC3CC3)c2)[nH]c2cn[nH]c(=O)c12 [Example 72, 3-(2-Butynyl)-2-(3-cyclopropoxy-4-difluoromethoxyphenyl)-1,5-dihydropyrrolo[2,3-d]pyridazin-4-one] | 76% | 231 to 236 °C | >10 mg/kg
